Results as given in patent publication US12312599B2, “Methods, compositions, and kits for producing beige adipocytes and treating metabolic disorders” (MaineHealth, priority 2018, dated 2025).

Tests used:
FD-MSCs [1] = assay: UCP1 expression time course of FD-MSCs during adipogenic differentiation; format: cell-based, human
Experimental: All assays were performed between 7 and 15 passages. For osteocyte differentiation, mature MSCs were grown in 24 well culture plates to 100% confluency in MesenCult-ACF and induced to differentiate in OsteoLife Complete Osteogenesis Medium (Lifeline Cell Technology) for 21 days prior to staining with Lifeline Alizarin Red Stain to visualize calcium deposition. For chondrocyte differentiation. For beige adipogenic precursor generation, cells were grown in 24 well culture plates to 90% confluence and treated with 5 uM SB413542 (Sigma) and 10 nM human IL-4 (Peprotech) for 2 days. For beige adipogenic induction, adipogenic precursors are differentiated for 3 days with adipogenic medium consisting of T3 (2 nM), insulin (170 nM), rosiglitazone (1 μM), SB413542 (5 uM), IBMX (0.5 mM), dexamethasone (5 μM) and indomethacin (125 μM) in EGM-2 medium (Lonza) supplemented with the BulletKit minus FGF2 (modified from^33). Thereafter, cells are maintained in adipogenic medium without IBMX, dexamethasone and indomethacin. The medium was changed every 3 days and adipocytes were fully differentiated by 9-12 days as determined by lipid accumulation and peak expression of UCP1. Cell Isolation, Expansion and Differentiation of Interscapular Brown Adipose Tissue Preadipocytes • 1. Prior to adipose cell isolation, warm DMEM, FBS and cell wash buffer to room temperature. • 2. […]

FD-MSCs [2] = assay: BODIPY lipid stain of FD-MSCs during adipogenic differentiation; format: cell-based, human
Experimental: All assays were performed between 7 and 15 passages. For osteocyte differentiation, mature MSCs were grown in 24 well culture plates to 100% confluency in MesenCult-ACF and induced to differentiate in OsteoLife Complete Osteogenesis Medium (Lifeline Cell Technology) for 21 days prior to staining with Lifeline Alizarin Red Stain to visualize calcium deposition. For chondrocyte differentiation. For beige adipogenic precursor generation, cells were grown in 24 well culture plates to 90% confluence and treated with 5 uM SB413542 (Sigma) and 10 nM human IL-4 (Peprotech) for 2 days. For beige adipogenic induction, adipogenic precursors are differentiated for 3 days with adipogenic medium consisting of T3 (2 nM), insulin (170 nM), rosiglitazone (1 μM), SB413542 (5 uM), IBMX (0.5 mM), dexamethasone (5 μM) and indomethacin (125 μM) in EGM-2 medium (Lonza) supplemented with the BulletKit minus FGF2 (modified from^33). Thereafter, cells are maintained in adipogenic medium without IBMX, dexamethasone and indomethacin. The medium was changed every 3 days and adipocytes were fully differentiated by 9-12 days as determined by lipid accumulation and peak expression of UCP1. Cell Isolation, Expansion and Differentiation of Interscapular Brown Adipose Tissue Preadipocytes • 1. Prior to adipose cell isolation, warm DMEM, FBS and cell wash buffer to room temperature. • 2. In a laminar flow cabinet for cell culture, place 5 g of adipose tissue on a 100×20 mm dish. Suspend tissue in 1 mL of Adipose Tissue Dissociation Kit enzyme digest cocktail and finely mince with a razorblade. • 3. […] Incubate tube at 37° C. on a rotating nutator for 30 minutes. During incubation period, briefly vortex sample for 5 s in 10-minute intervals. • 5. Transfer cells to a 15 mL tube and add 5 mL of DMEM. Filter cell suspension through a 100 μm strainer into a new 15 mL tube and centrifuge at 300 g for 5 minutes to form a pellet. • 6. Remove supernatant and leave behind […] of DMEM. Resuspend cell pellet in 10 mL of DMEM containing 10% FBS and plate in a 100×20 mm dish for expansion. Agitate plate to spread cells evenly on well surface and incubate plate at 37° C. in a 5% CO2 incubator undisturbed. Change 100% of medium every day. • 7. Upon 80% confluence, split and passage cells at a ratio of 1:6. • 8. Prepare for passage by warming cell wash buffer and cell culture medium (DMEM containing 10% FBS) to room temperature. Warm TrypLE dissociation reagent to 37° C. • 9. Aspirate cell culture medium from wells and wash once with PBS. Remove PBS and add 500 μL of pre-warmed TrypLE reagent to each well of a 6 well plate. Scale TrypLE amount for larger tissue culture plates accordingly. • 10. Incubate culture plate at 37° C. for 5 minutes. […]

[3] = SB throughout the adipogenic differentiation period, day 12

NC(=O)c1ccc(-c2nc(-c3ccc4c(c3)OCO4)c(-c3ccccn3)[nH]2)cc1 [SB, SB431542]
shift of the peak of UCP1 expression (earlier) (FD-MSCs [1]; additional SB pretreatment prior to adipogenic differentiation): 3 days
UCP1 gene expression (qPCR) (FD-MSCs [1]; differentiated in the presence of SB): large increase
lipid accumulation (FD-MSCs [2]; SB for 2 days before and throughout the 12-day adipogenic differentiation): greatest amount of lipid accumulation
additional increase in lipid droplet staining (FD-MSCs [2]; SB prior to and during differentiation, versus SB during differentiation alone): 45%
cells in culture with lipid content (FD-MSCs [2]; [3]): approximately 50%
increase in lipid content (FD-MSCs [2]; [3]): 5 fold
